Where “and” joins values, the source holds several entries; their conditions need not be identical. Equal entries are not always repeated. Inconclusive results and toxic doses are left out.

We go through 17 molecules from PubChem BioAssay AID248 (DTP/NCI, 2004).

For the assay, the system named is L1210 leukemia ip in BDF1 mice, survival T/C. Nature of the assay: NCI In Vivo Anticancer Drug Screen. Data for tumor model L1210 Leukemia (intraperitoneal) in B6D2F1 (BDF1) mice. The following applies: endpoint: mean survival time, higher = longer survival. The method in brief:
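Read-out is survival time, reported as the treated-group measurement over the vehicle-control measurement.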

Where [1] appears, read: dose: 100.0 mg/kg/injection, schedule: Q04DX003 (ip), vehicle: saline with Tween-80.
The mark [2] stands for this setting: dose: 200.0 mg/kg/injection, schedule: Q04DX003 (ip), vehicle: saline with Tween-80.
The mark [3] stands for this setting: dose: 400.0 mg/kg/injection, schedule: Q04DX003 (ip), vehicle: saline with Tween-80.
The mark [4] stands for this setting: dose: 100.0 mg/kg/injection, schedule: Q04DX003 (ip), vehicle: saline.
The mark [5] stands for this setting: dose: 100.0 mg/kg/injection, schedule: Q04DX003 (ip), vehicle: Klucel (hydroxypropylcellulose) (HPC).
[6] abbreviates: dose: 200.0 mg/kg/injection, schedule: Q04DX003 (ip), vehicle: Klucel (hydroxypropylcellulose) (HPC).
Setting [7] is: dose: 400.0 mg/kg/injection, schedule: Q04DX003 (ip), vehicle: Klucel (hydroxypropylcellulose) (HPC).
The mark [8] stands for this setting: dose: 100.0 mg/kg/injection, schedule: Q01DX001 (ip), vehicle: saline.
The mark [9] stands for this setting: dose: 200.0 mg/kg/injection, schedule: Q01DX001 (ip), vehicle: saline.
Setting [10] is: dose: 400.0 mg/kg/injection, schedule: Q01DX001 (ip), vehicle: saline.

In the case of `COC1OCC(O)C(NC(=O)N(C)N=O)C1O` (stereo not given), the T/C was 117 % of control (dose: 6.25 mg/kg/injection, schedule: Q01DX009 (ip), vehicle: saline); 118 % of control (dose: 12.5 mg/kg/injection, schedule: Q01DX009 (ip), vehicle: saline); 108 % of control (dose: 16.5 mg/kg/injection, schedule: Q04DX003 (ip), vehicle: saline); 150 % of control and 154 % of control (dose: 25.0 mg/kg/injection, schedule: Q01DX009 (ip), vehicle: saline); 112 % of control (dose: 27.3 mg/kg/injection, schedule: Q04DX003 (ip), vehicle: saline); 118 % of control (dose: 33.0 mg/kg/injection, schedule: Q04DX003 (ip), vehicle: saline). The T/C is 152 % of control (dose: 37.5 mg/kg/injection, schedule: Q01DX009 (ip), vehicle: citric acid); 185 % of control (dose: 75.0 mg/kg/injection, schedule: Q01DX009 (ip), vehicle: citric acid); 177 % of control and 224 % of control (dose: 100.0 mg/kg/injection, schedule: Q01DX009 (ip), vehicle: saline); 167 % of control (dose: 150.0 mg/kg/injection, schedule: Q04DX003 (ip), vehicle: saline); 92 % of control (dose: 200.0 mg/kg/injection, schedule: Q01DX009 (ip), vehicle: saline).
Consider `c1ccc(C2COC3(CCCCC3)O2)cc1` (stereo not given), for which the T/C is 90 % of control (dose: 222.0 mg/kg/injection, schedule: Q01DX Z (ip), vehicle: methylcellulose (MC)) and 95 % of control (dose: 333.0 mg/kg/injection, schedule: Q01DX Z (ip), vehicle: methylcellulose (MC)).
Regarding `CC(C)(c1ccsc1)c1sccc1C(=O)O`, the T/C was 100 % of control under setting [1], 87 % of control under setting [2] and 87 % of control under setting [3].
Take `CCOC(=O)C(=O)c1c(C)[nH]c(C(=O)OCC)c1C`: the T/C (dose: 25.0 mg/kg/injection, schedule: Q04DX003 (ip), vehicle: saline) is 104 % of control; the T/C (dose: 50.0 mg/kg/injection, schedule: Q04DX003 (ip), vehicle: saline) is 93 % of control; the T/C (dose: 100.0 mg/kg/injection, schedule: Q01DX001 (ip), vehicle: Klucel (hydroxypropylcellulose) (HPC)) was 95 % of control; the T/C under setting [4] was 98 % of control; the T/C (dose: 200.0 mg/kg/injection, schedule: Q01DX001 (ip), vehicle: Klucel (hydroxypropylcellulose) (HPC)) is 97 % of control; the T/C (dose: 400.0 mg/kg/injection, schedule: Q01DX001 (ip), vehicle: Klucel (hydroxypropylcellulose) (HPC)) was 101 % of control.
As for `C[C@]12CC[C@H](O)C[C@@]1(O)CC[C@@H]1[C@@H]2CC[C@]2(C)[C@@H](c3ccc(=O)oc3)CC[C@]12O`, the T/C was 107 % of control (dose: 1.25 mg/kg/injection, schedule: Q01DX009 (ip), vehicle: Klucel (hydroxypropylcellulose) (HPC)); 91 % of control (dose: 2.5 mg/kg/injection, schedule: Q01DX009 (ip), vehicle: Klucel (hydroxypropylcellulose) (HPC)); 96 % of control (dose: 5.0 mg/kg/injection, schedule: Q01DX009 (ip), vehicle: Klucel (hydroxypropylcellulose) (HPC)); 102 % of control (dose: 10.0 mg/kg/injection, schedule: Q01DX009 (ip), vehicle: Klucel (hydroxypropylcellulose) (HPC)); 98 % of control (dose: 20.0 mg/kg/injection, schedule: Q01DX009 (ip), vehicle: Klucel (hydroxypropylcellulose) (HPC)); 106 % of control (dose: 25.0 mg/kg/injection, schedule: Q01DX009 (ip), vehicle: carboxymethylcellulose (CMC)). For the same molecule, the T/C reads like this: (dose: 50.0 mg/kg/injection, schedule: Q01DX001 (ip), vehicle: carboxymethylcellulose (CMC)) 104 % of control; (dose: 50.0 mg/kg/injection, schedule: Q01DX009 (ip), vehicle: carboxymethylcellulose (CMC)) 92 % of control; (dose: 100.0 mg/kg/injection, schedule: Q01DX001 (ip), vehicle: carboxymethylcellulose (CMC)) 109 % of control.
As to `O=C(COc1ccc(Cl)c(Cl)c1)NCc1ccc[n+](Cc2cc(Cl)ccc2S(=O)(=O)F)c1`, the T/C by setting is: under setting [1], 101 % of control; under setting [2], 114 % of control; under setting [3], 88 % of control.
Turning to `Oc1ccccc1C=NC1CCCCC1.Oc1ccccc1C=NC1CCCCC1.[Ni+2]`, the T/C by setting is: under setting [5], 96 % of control; under setting [4], 94 % of control; under setting [6], 92 % of control; (dose: 200.0 mg/kg/injection, schedule: Q04DX003 (ip), vehicle: saline) 96 % of control; under setting [7], 90 % of control.
`c1scc2c1COCc1cscc1-2`: the T/C runs as follows: (dose: 100.0 mg/kg/injection, schedule: Q01DX001 (ip), vehicle: saline with Tween-80) 94 % of control; (dose: 200.0 mg/kg/injection, schedule: Q01DX001 (ip), vehicle: saline with Tween-80) 94 % of control; (dose: 400.0 mg/kg/injection, schedule: Q01DX001 (ip), vehicle: saline with Tween-80) 88 % of control.
Regarding `O=C(/C=C\c1ccccc1)OCCCCOC(=O)/C=C/c1ccccc1`, the T/C was 103 % of control (dose: 50.0 mg/kg/injection, schedule: Q01DX001 (ip), vehicle: saline); 101 % of control under setting [8]; 91 % of control under setting [9]; 97 % of control under setting [10].
`CCCCCC(C[N+](C)(C)C)C(O)/C=C\c1ccccc1` (stereo not given): the T/C is, setting by setting: (dose: 2.5 mg/kg/injection, schedule: Q01DX009 (ip), vehicle: saline) 97 % of control; (dose: 5.0 mg/kg/injection, schedule: Q01DX009 (ip), vehicle: saline) 97 % of control; (dose: 5.0 mg/kg/injection, schedule: Q04DX003 (ip), vehicle: saline) 103 % of control; (dose: 10.0 mg/kg/injection, schedule: Q01DX009 (ip), vehicle: saline) 99 % of control; (dose: 10.0 mg/kg/injection, schedule: Q04DX003 (ip), vehicle: saline) 98 % of control.
Consider `CCSCC1OC2OC(C)(C)OC2C1O` (stereo not given), for which the T/C was 97 % of control under setting [8], 111 % of control under setting [9] and 97 % of control under setting [10].
With `CN1C2CCC1CC(NCCN1CC1)C2` (stereo not given), the T/C under setting [8] is 107 % of control.
As to `NC(=S)N/N=C\c1ncnc2nc[nH]c12`, the T/C reads like this: (dose: 0.5 mg/kg/injection, schedule: Q03HX024 (ip), vehicle: saline) 111 % of control; (dose: 1.0 mg/kg/injection, schedule: Q03HX024 (ip), vehicle: saline) 121 % of control; (dose: 5.0 mg/kg/injection, schedule: Q01DX001 (ip), vehicle: saline) 114 % of control; (dose: 8.0 mg/kg/injection, schedule: Q03HX024 (ip), vehicle: saline) 150 % of control; (dose: 10.0 mg/kg/injection, schedule: Q01DX001 (ip), vehicle: saline) 118 % of control; (dose: 20.0 mg/kg/injection, schedule: Q01DX001 (ip), vehicle: saline) 114 % of control.
For the molecule `O=C(Nc1ccc([N+](=O)[O-])cc1)C(c1ccccc1)c1ccccc1`, the T/C (dose: 100.0 mg/kg/injection, schedule: Q04DX002 (ip), vehicle: gum acacia) was 100 % of control; the T/C (dose: 200.0 mg/kg/injection, schedule: Q04DX002 (ip), vehicle: gum acacia) was 100 % of control; the T/C (dose: 400.0 mg/kg/injection, schedule: Q04DX002 (ip), vehicle: gum acacia) was 93 % of control.
Consider `Nc1ccc(NC(=O)c2ccc(C(=O)Nc3ccc(N)cc3)cc2)cc1`, for which the T/C by setting is: (dose: 30.0 mg/kg/injection, schedule: Q01DX Z (ip), vehicle: methylcellulose (MC)) 103 % of control; (dose: 60.0 mg/kg/injection, schedule: Q01DX Z (ip), vehicle: methylcellulose (MC)) 103 % of control; (dose: 120.0 mg/kg/injection, schedule: Q01DX Z (ip), vehicle: methylcellulose (MC)) 95 % of control; (dose: 125.0 mg/kg/injection, schedule: Q01DX Z (ip), vehicle: water) 96 % of control; (dose: 250.0 mg/kg/injection, schedule: Q01DX Z (ip), vehicle: water) 93 % of control; (dose: 500.0 mg/kg/injection, schedule: Q01DX Z (ip), vehicle: water) 98 % of control.
On to `CCCCCCCCCCCCCCSc1ccc2ccccc2c1`, for which the T/C runs as follows: under setting [5], 92 % of control; under setting [6], 86 % of control; under setting [7], 87 % of control.
With `O=C(O)c1ccc(Cl)o1`, the T/C is, setting by setting: (dose: 100.0 mg/kg/injection, schedule: Q01DX009 (ip), vehicle: Klucel (hydroxypropylcellulose) (HPC)) 97 % of control; (dose: 200.0 mg/kg/injection, schedule: Q01DX009 (ip), vehicle: Klucel (hydroxypropylcellulose) (HPC)) 98 % of control.
